From US4620014A, “2-furylbutyrolactones and methods for using same” (priority 1983, dated 1986)
Like-named read-outs stand apart in the source and are kept apart here.

Legend:
human lymphocytes = experiment: In vitro lymphocyte stimulation assay in humans; type: cell-based; settings: PHA and Con-A
Procedure: The purpose of this assay is to challenge lymphocytes in microcultures with one or more polyclonal mitogens at concentrations that will induce mitogenesis within 72 hours of stimulation.
In the mouse model, spleens are removed from different strains of mice and the spleen cells are teased free and suspended in RPMI-1640 tissue culture medium at a concentration of usually 1×10^7 ml. These cells are dispensed at a concentration of 5.0×10^5 cells per microculture well in a 96 well flat bottom 96 well tissue culture plate. All testing of the compounds of this invention or mitogens are done in replicates of 10. The cells are then treated with PHA, Con-A, specific antigens, or buffer only. If in vitro testing is done, varying concentrations of the compounds of this invention or buffer only are added to the cells as well. After treatment with the mitogens and/or compounds of this invention, the cells are incubated for 72 hours. The response of these cells to mitogens and/or the compounds of this invention is assessed using ^14 C-thymidine labeling on the fourth day at a concentration of 0.01 μCi/well. The labeled cells are harvested using a lymphocyte harvestor and placed onto fibrous paper discs. A scintillation cocktail is added to vials contaning the discs and the results are obtained using a LKB-liquid scintillation counter (Model 1216/Rackbeta II). The data is expressed as a ratio of the cpm of the mitogen stimulated group to the control (non-mitogen) treated group=lymphocyte stimulation index (LSI).
The lymphocyte stimulation assay may be performed directly on spleen cells obtained from various strains of mice not treated with the compounds of this invention or on lymphocytes obtained from […]. […] Alternatively, the mice may be treated in vivo with the compounds of this invention by intraperitoneal multi-dose schedules, followed by sacrifice and harvesting spleen lymphocytes. These cells are then tested for their response to polyclonal mitogens or specific antigens used to immunize the mice. […]

[1] = system: antibody response to keyhole limpet hemocyanin (KLH)
Excerpt: (§1) The effect of the compounds of this invention on the immune response to specific antigens involves immunization of mice with specific anitgens such as bovine serum albumin (BSA) or keyhole limpet hemocyanin (KLH). Following immunization, it is possible to assess the cell-mediated or humoral (antibody) immune response to these antigens by various methods:
(2) Antibody response to soluble antigens such as BSA or KLH can be quantitated using a micro-ELISA solid phase heterogeneous immunoassay. The assay can be designed to quantitate class specific immunoglobulins (i.e., IgG or IgM).
The cut-off for the titer was the highest dilution of mouse serum yielding an O.D.≤0.1 when read on the MR-600 Dynatech micro-ELISA reader.
(§2) Mice of the C57BL/6 strain are given i.p. injections of either 50, 100, 200 or 400 mg/kg of Cpd. 1 or buffer for ten days (days 1-10). An antigen, keyhole limpet hemocyanin (KLH), is administered intraperitoneally with Freund's Complete Adjuvant (FCA) on days 1, 7, and 13. Blood samples are taken for assay of the antibody response on days 0, 5, 12, and 17. Spleens are removed, lymphocytes isolated and a lymphocyte stimulation assay with PHA, Con-A or KLH antigen as the mitogens is performed on day 17 of the experiment.

[2] = system: spleen lymphocytes of KLH-immunized C57BL/6 mice; settings: for Lymphocyte Stimulation Index, Con-A / Lymphocyte Stimulation Index, Control (no mitogen) / Lymphocyte Stimulation Index, PHA: day 17
Excerpt: as §1
(1) Lymphocyte stimulation assays can be performed using varying concentrations of the specific antigens as mitogens in the lymphocyte stimulation microculture system described above. The only difference is that the incubation period is extended to five days instead of three as for the polyclonal mitogens.
as §2

[3] = Dissolution in bicarbonate buffered saline; type: physicochemical; settings: 0.238 molar bicarbonate buffered saline (0.85%)

SMILES: Cc1ccc(C2(O)C(=O)OC3C(O)COC32O)o1.Cc1ccc(C2(O)C(=O)OC3C(O)COC32O)o1.O=C1CCC(=O)O1 (stereo not drawn) [Cpd. 1]
- lymphocyte response, very low doses (human lymphocytes; 1 and 0.1 μg/ml): markedly increased lymphocyte response
- lymphocyte response, high dose (human lymphocytes; 100 and 50 μg/ml): high dose anti-proliferative effect
- Micro-ELISA Titer ([1]; 50 mg/kg i.p., day 5): N/R
- Micro-ELISA Titer ([1]; 50 mg/kg i.p., prebleed): N/R
- Micro-ELISA Titer ([1]; 100 mg/kg i.p., day 5): N/R
- Micro-ELISA Titer ([1]; 100 mg/kg i.p., prebleed): N/R
- Micro-ELISA Titer ([1]; 200 mg/kg i.p., day 5): N/R
- Micro-ELISA Titer ([1]; 200 mg/kg i.p., prebleed): N/R
- Micro-ELISA Titer ([1]; 400 mg/kg i.p., day 5): N/R
- Micro-ELISA Titer ([1]; 400 mg/kg i.p., prebleed): N/R
- stimulation of antibody response to KLH over control ([1]; 200 and 400 mg/kg, day 12): significant stimulation (four-fold increases)
- increase of antibody response to KLH over untreated antigen-sensitized controls ([1]; 200 and 400 mg/kg, day 17): eight-fold increase
- Lymphocyte Stimulation Index, Con-A ([2]; 50 mg/kg i.p.): 19.0
- Lymphocyte Stimulation Index, Control (no mitogen) ([2]; 50 mg/kg i.p.): 0.976
- Lymphocyte Stimulation Index, PHA ([2]; 50 mg/kg i.p.): 7.65
- Lymphocyte Stimulation Index, KLH ([2]; 50 mg/kg i.p., day 17, KLH 0.025 μg/well): 0.0386
- Lymphocyte Stimulation Index, KLH ([2]; 50 mg/kg i.p., day 17, KLH 0.5 μg/well (first 0.5 column)): 0.415
- Lymphocyte Stimulation Index, KLH ([2]; 50 mg/kg i.p., day 17, KLH 0.5 μg/well (second 0.5 column)): 0.357
- Lymphocyte Stimulation Index, KLH ([2]; 50 mg/kg i.p., day 17, KLH 1.0 μg/well): 0.536
- Lymphocyte Stimulation Index, Con-A ([2]; 100 mg/kg i.p.): 15.6
- Lymphocyte Stimulation Index, Control (no mitogen) ([2]; 100 mg/kg i.p.): 0.961
- Lymphocyte Stimulation Index, PHA ([2]; 100 mg/kg i.p.): 9.12
- Lymphocyte Stimulation Index, KLH ([2]; 100 mg/kg i.p., day 17, KLH 0.025 μg/well): 0.401
- Lymphocyte Stimulation Index, KLH ([2]; 100 mg/kg i.p., day 17, KLH 0.5 μg/well (first 0.5 column)): 0.734
- Lymphocyte Stimulation Index, KLH ([2]; 100 mg/kg i.p., day 17, KLH 0.5 μg/well (second 0.5 column)): 0.526
- Lymphocyte Stimulation Index, KLH ([2]; 100 mg/kg i.p., day 17, KLH 1.0 μg/well): 0.898
- Lymphocyte Stimulation Index, Con-A ([2]; 200 mg/kg i.p.): 51.7
- Lymphocyte Stimulation Index, Control (no mitogen) ([2]; 200 mg/kg i.p.): 1.73
- Lymphocyte Stimulation Index, PHA ([2]; 200 mg/kg i.p.): 12.4
- Lymphocyte Stimulation Index, KLH ([2]; 200 mg/kg i.p., day 17, KLH 0.025 μg/well): 3.91
- Lymphocyte Stimulation Index, KLH ([2]; 200 mg/kg i.p., day 17, KLH 0.5 μg/well (first 0.5 column)): 4.26
- Lymphocyte Stimulation Index, KLH ([2]; 200 mg/kg i.p., day 17, KLH 0.5 μg/well (second 0.5 column)): 1.02
- Lymphocyte Stimulation Index, KLH ([2]; 200 mg/kg i.p., day 17, KLH 1.0 μg/well): 7.45
- lymphocyte DNA synthesis ([2]; 200 mg/kg, day 17, Con-A or KLH): statistically significant increase in lymphocyte DNA synthesis
- Lymphocyte Stimulation Index, Con-A ([2]; 400 mg/kg i.p.): 35.5
- Lymphocyte Stimulation Index, Control (no mitogen) ([2]; 400 mg/kg i.p.): 0.840
- Lymphocyte Stimulation Index, PHA ([2]; 400 mg/kg i.p.): 2.32
- Lymphocyte Stimulation Index, KLH ([2]; 400 mg/kg i.p., day 17, KLH 0.025 μg/well): 1.03
- Lymphocyte Stimulation Index, KLH ([2]; 400 mg/kg i.p., day 17, KLH 0.5 μg/well (first 0.5 column)): 0.232
- Lymphocyte Stimulation Index, KLH ([2]; 400 mg/kg i.p., day 17, KLH 0.5 μg/well (second 0.5 column)): 0.667
- Lymphocyte Stimulation Index, KLH ([2]; 400 mg/kg i.p., day 17, KLH 1.0 μg/well): 0.589
- dissolution [3]: dissolves completely
